Structures can show the parent of a compound that is named as a salt.

These results are taken from patent US6087355A, “Cephalosporin antibiotics” (Microcide Pharmaceuticals, Inc., priority 1996, dated 2000).

What all share (assay): In vitro MIC, agar dilution
Holding throughout (type): cell-based
A general note: In agar dilution, organisms are placed on agar that contains the substance at set levels.

Test [1] has as its system S. aureus ATCC 29213. The settings on record: for MIC: Staphylococcus aureus, ATCC29213, read-out: minimum inhibitory concentration (MIC). Put shortly:
(§1)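 Two-fold dilutions of compound (highest working concentration 128 μg/mL, down to ≤0.25 μg/mL, in duplicate) were set into Mueller-Hinton agar. Plates were spot-inoculated at about 10^4 cfu per spot from log-phase cultures and incubated 16-20 hours at 35-36° C. MIC is the lowest concentration inhibiting growth.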

Test [2] deals with E. faecium A491(Amp^R). Conditions: for MIC: Enterococcus faecium, read-out: minimum inhibitory concentration (MIC). The method, boiled down: as §1
Test [3] has as its system E. faecium ATCC 35667. Conditions: for MIC: Enterococcus faecium, ATCC35667, read-out: minimum inhibitory concentration (MIC). Put shortly: as §1
For test [4], the system named is S. aureus ATCC 13709(Meth^S). The settings on record: for minimum inhibitory concentration (MIC): S. aureus ATCC 13709(Meth^S); for MIC: Staphylococcus aureus, ATCC13709, S. aureus ATCC 13709(Meth^S), read-out: minimum inhibitory concentration (MIC). Put shortly: as §1
In test [5] the test system is S. aureus Spain #356(Meth^R). The settings on record: for MIC: Staphylococcus aureus, read-out: minimum inhibitory concentration (MIC). Put shortly:
as §1

Test [6] relates to P. aeruginosa ATCC 27853. The settings on record: for MIC: Pseudomonas aeruginosa, ATCC27853, read-out: minimum inhibitory concentration (MIC). Put shortly:
as §1

Test [7] deals with S. haemolyticus 05(Meth^R). Conditions: for MIC: Staphylococcus haemolyticus, read-out: minimum inhibitory concentration (MIC). Put shortly:
as §1

Test [8] relates to S. aureus PC1(Meth^S)(lac^+). Conditions: for MIC: Staphylococcus aureus, read-out: minimum inhibitory concentration (MIC). Put shortly:
as §1

Test [9] relates to E. faecalis VanB(Van^R). The settings on record: for MIC: Enterococcus faecalis, read-out: minimum inhibitory concentration (MIC). Put shortly:
as §1

Test [10] concerns E. faecium VanA(Van^R). The settings on record: for MIC: Enterococcus faecium, read-out: minimum inhibitory concentration (MIC). Put shortly: as §1
The subject of test [11] is E. coli ATCC 25992. Conditions: for MIC: Escherichia coli, ATCC25992, read-out: minimum inhibitory concentration (MIC). Put shortly:
as §1

In test [12] the test system is S. aureus ATCC 33593(Meth^R). Conditions: for MIC: Staphylococcus aureus, ATCC33593, read-out: minimum inhibitory concentration (MIC). The method, boiled down:
as §1

The test system of test [13] is S. aureus 76(Meth^R)(lac^+). Conditions: for MIC: Staphylococcus aureus, read-out: minimum inhibitory concentration (MIC). The method, boiled down: as §1
Test [14] has as its system E. faecalis ATCC 29212. The settings on record: for MIC: Enterococcus faecalis, ATCC29212, read-out: minimum inhibitory concentration (MIC). The method, boiled down: as §1
Test [15] concerns S. aureus Col(Meth^R)(lac^-). The settings on record: for MIC: Staphylococcus aureus, read-out: minimum inhibitory concentration (MIC). The method, boiled down:
(§2)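 Two-fold dilutions (128 to ≤0.25 μg/mL, in duplicate) were poured into Mueller-Hinton agar. Log-phase broth cultures were spot-inoculated at about 10^4 cfu per spot and incubated 35-36°C for 16-20 hours; the MIC was the lowest concentration inhibiting growth. Col is a high-level PBP2a producer; Col 8A is its isogenic PBP2a-lacking partner.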

The subject of test [16] is S. aureus Col8A(Meth^S)(lac^-). The settings on record: S. aureus Col8A(Meth^S)(lac^-); for MIC: Staphylococcus aureus, read-out: minimum inhibitory concentration (MIC). Put shortly:
as §2

On to “(7R)-7-[(Z)-2-(aminothiazol-4-yl)-2-(hydroxyimino)acetamido]-3-[(guanidinoethylaminoethylthiomethyl)-1,2,3-thiadiazol-5-ylthio]-3-cephem-4-carboxylate, trifluoroacetic acid salt [Cmpd 12]”, for which the “minimum inhibitory concentration (MIC)” value in [1] is 0.5 µg/mL; in test [2], greater than 32 µg/mL; in test [3], 1 µg/mL; in test [4] it was 0.25 µg/mL; in test [5] it was 2 µg/mL; in test [6], greater than 32 µg/mL. Further, the “minimum inhibitory concentration (MIC)” value in test [7] turned out to be 2 µg/mL; in test [8] it was 0.5 µg/mL; in [9], 0.5 µg/mL; in [10] it was 4 µg/mL; in [11], 8 µg/mL; in test [12] it was 2 µg/mL. Further, the “minimum inhibitory concentration (MIC)” value was 2 µg/mL in test [13], 0.25 µg/mL in [14], 2 µg/mL in [15] and 0.5 µg/mL in test [16].
For the molecule `NCCSCc1nnsc1SC1=C(C(=O)O)N2C(=O)[C@@H](NC(=O)/C(=N\O)c3csc(N)n3)[C@H]2SC1` [Cmpd 38, (7R)-7-[(Z)-2-(aminothiazol-4-yl)-2-(hydroxyimino)acetamido]-3-(4-(2-aminoethylthiomethyl)-1,2,3-thiadiazol-5-ylthio)-3-cephem-4-carboxylate, trifluoroacetic acid salt], the MIC was 0.13 µg/mL in test [1]; greater than 32 µg/mL in test [2]; 1 µg/mL in test [3]; 0.13 µg/mL in test [4]; 1 µg/mL in [5]; greater than 32 µg/mL in [6]. Also, the MIC in test [7] was determined as 2 µg/mL; in test [8], 0.25 µg/mL; in [9], 0.13 µg/mL; in test [10], 2 µg/mL; in [11], 2 µg/mL; in test [12], 1 µg/mL. Moreover, the MIC in test [13] worked out at 1 µg/mL; in [14], 0.13 µg/mL; in test [15] it was 1 µg/mL; in test [16], 0.13 µg/mL.
For the molecule `NCC(=O)NCCCSCc1cnccc1SC1=C(C(=O)O)N2C(=O)[C@@H](NC(=O)/C(=N\O)c3nc(N)sc3Cl)[C@H]2SC1` [Cmpd 35, (7R)-7-[(Z)-2-(2-amino-5-chlorothiazol-4-yl)-2-(hydroxyimino)acetamido]-3-[3-(glycyl)aminopropylthiomethylpyrid-4-ylthio]-3-cephem-4-carboxylate, trifluoroacetic acid salt], the MIC is 0.25 µg/mL in test [1]; 4 µg/mL in test [2]; 0.25 µg/mL in [3]; 0.25 µg/mL in [4]; 2 µg/mL in [5]; greater than 32 µg/mL in test [6]. For the same molecule, the MIC in test [7] is 4 µg/mL; in [8], 0.5 µg/mL; in test [9], 0.25 µg/mL; in test [10], 0.5 µg/mL; in test [11] it was 8 µg/mL; in test [12], 2 µg/mL. For the same molecule, the MIC is 2 µg/mL in test [13], no more than 0.06 µg/mL in [14], 2 µg/mL in test [15] and 0.25 µg/mL in test [16].
Consider `CNCCNCCSCc1nnsc1SC1=C(C(=O)O)N2C(=O)[C@@H](NC(=O)/C(=N\O)c3nc(N)sc3Cl)[C@H]2SC1.O=C(O)C(F)(F)F` [Cmpd 22, (7R)-7-[(Z)-2-(2-amino-5-chlorothiazol-4-yl)-2-(hydroxyimino)acetamido]-3-[(methylaminoethylaminoethylthiomethyl)-1,2,3-thiadiazol-5-ylthio]-3-cephem-4-carboxylate, trifluoroacetic acid salt], for which the “minimum inhibitory concentration (MIC)” value in [1] is 0.25 µg/mL; in test [2], 16 µg/mL; in test [3], 1 µg/mL; in [4], 1 µg/mL; in test [5] it was 2 µg/mL; in [6], greater than 32 µg/mL. Moreover, the “minimum inhibitory concentration (MIC)” value in test [7] came to 2 µg/mL; in test [8] it was 1 µg/mL; in test [9], 0.5 µg/mL; in [10], 2 µg/mL; in [11], 8 µg/mL; in test [12], 2 µg/mL. Also, the “minimum inhibitory concentration (MIC)” value in [13] turned out to be 2 µg/mL; in [14] it was 0.13 µg/mL; in test [15], 2 µg/mL; in test [16], 0.5 µg/mL.
Consider `NCCSCc1cnccc1SC1=C(C(=O)O)N2C(=O)[C@@H](NC(=O)Cc3ccccc3)[C@H]2SC1.O=C(O)C(F)(F)F` [Cmpd 9, (7R)-7-[(phenylacetyl)amino]-3-(3-aminoethylthiomethylpyrid-4-ylthio)-3-cephem-4-carboxylate, trifluoroacetic acid salt], for which the MIC was 0.25 µg/mL in [1]; greater than 32 µg/mL in test [2]; 1 µg/mL in test [3]; no more than 0.06 µg/mL in test [4]; 4 µg/mL in [5]; greater than 32 µg/mL in test [6]. Further, the MIC was 16 µg/mL in test [7]; 1 µg/mL in test [8]; 2 µg/mL in test [9]; 4 µg/mL in test [10]; greater than 32 µg/mL in test [11]; 4 µg/mL in test [12]. Besides, the MIC in [13] was 4 µg/mL; in test [14], 1 µg/mL; in [15], 1 µg/mL; in [16], 0.13 µg/mL.
As to `Nc1nc(/C(=N/O)C(=O)N[C@@H]2C(=O)N3C(C(=O)O)=C(Sc4ccncc4CSC4CCNCC4)CS[C@H]23)c(Cl)s1` [Cmpd 52, (7R)-7-[(Z)-2-(2-amino-5-chlorothiazol-4-yl)-2-(hydroxyimino)acetamido]-3-(3-(piperidine-4-ylthiomethyl)pyrid-4-ylthio)-3-cephem-4-carboxylate, trifluoroacetic acid salt], the MIC in [1] was 0.5 µg/mL; in [2], 4 µg/mL; in test [3], no more than 0.06 µg/mL; in test [4] it was 0.5 µg/mL; in test [5] it was 2 µg/mL; in [6], greater than 32 µg/mL. Moreover, the MIC was determined as 2 µg/mL in test [7]; 0.5 µg/mL in [8]; 0.13 µg/mL in test [9]; 1 µg/mL in test [10]; 2 µg/mL in test [11]; 2 µg/mL in [12]. Further, the MIC in [13] is 2 µg/mL; in test [14] it was no more than 0.06 µg/mL; in [15], 2 µg/mL; in [16], 0.25 µg/mL.
`N=CNCCCSCc1cnccc1SC1=C(C(=O)O)N2C(=O)[C@@H](NC(=O)/C(=N\O)c3nc(N)sc3Cl)[C@H]2SC1` [Cmpd 34, (7R)-7-[(Z)-2-(2-amino-5-chlorothiazol-4-yl)-2-(hydroxyimino)acetamido]-3-(3-(3-N-formamidoylaminopropylthiomethyl)pyrid-4-ylthio)-3-cephem-4-carboxylate, trifluoroacetic acid salt]: the MIC is no more than 0.06 µg/mL in test [1]; 4 µg/mL in [2]; 0.25 µg/mL in [3]; no more than 0.06 µg/mL in test [4]; 1 µg/mL in test [5]; greater than 32 µg/mL in test [6]. In addition, the MIC in test [7] was 2 µg/mL; in [8], 0.13 µg/mL; in test [9], no more than 0.06 µg/mL; in [10], 0.5 µg/mL; in test [11], 4 µg/mL; in test [12] it was 1 µg/mL. The MIC in test [13] is 1 µg/mL; in [14], no more than 0.06 µg/mL; in test [15], 1 µg/mL; in test [16], no more than 0.06 µg/mL.
